Measurements as given in US6462086B1, “Non-malignant disease treatment with Ras antagonists” (Ramot University Authority for Applied Research and …, priority 1999, dated 2002).

Assay: Solubility in water and saline
Type: physicochemical
Source text: In these formulations, the alkyl gallate, etc., is present in an amount of from 0.02% to about 0.05%, and the citric or phosphoric acid is present in an amount of about 0.01%. These formulations are suitable for parenteral administraiton.
In one embodiment of the present invention, both of these shortcomings are overcome by formulating the agent in cyclodextrin. This technology is the subject of U.S. Pat. Nos. 5,681,828 and 5,935,941. Cyclodextrins are a group of compounds consisting of, or derived from, the three parent cyclodextrins—alpha-, beta- and gamma-cyclodextrins. Alpha-, beta- and gamma-cyclodextrins are simple oligosaccharides consisting of six, seven or eight anhydroglucose residues, respectively, connected to macrocyles by alpha (1 to 4) glycosidic bonds. Each of the glucose residues of a cyclodextrin contains one primary (O6) and two secondary hydroxyls (O2 and O3) which can be substituted, for example, methylated. Many cyclodextrin preparations in practical use are mixtures of chemically individual derivatives in which only a part of hydroxy groups were substituted and which differ in number and position of these substituents.

SMILES: CC(C)=CCC/C(C)=C/CC/C(C)=C/CSc1ccccc1C(=O)O [FTS, farnesyl thiosalicylic acid]
- solubility in water / saline: insoluble in water
